The subject of data set [1] is PC-3 (prostate adenocarcinoma). The note with it: literature value, same experimental conditions; cited from earlier work.
For data set [2], the system named is PC-3 (prostate adenocarcinoma). Description: Sulforhodamine B in vitro growth inhibition assay, PC-3. The format is cell-based, human. The note with it: for Selectivity Index (SI) MCF-10/PC-3: IC50 in non-cancerogenic cell line / IC50 in cancer cell line; for IC50: Homo sapiens, sulforhodamine B assay, 72 h of treatment, IC50 ± SD. How it is done: (§1) For this purpose, a colorimetric sulforhodamine B assay was performed to quantify the cytotoxic effect through their respective IC50 values. Each compound’s serial dilutions (12.5, 25, 50, and 100 µM) were evaluated in triplicate. In our study, the human cancer cell lines used were MCF-7 (breast adenocarcinoma); HT-29 (colorectal adenocarcinoma); PC-3 (prostate adenocarcinoma); and MCF-10 control cells (normal breast epithelium). For comparative purposes, the literature IC50 values of daunorubicin and 5-fluorouracil (5-FU), measured in the same cell lines and under the same experimental conditions, were included. Similarly, drimenol (1) was included for comparative purposes.
(§2) The sulforhodamine B assay was used. Briefly, the cells were set up at 5 × 10^3 cells per well of a 96-well microplate for 18 h. Cells were incubated at 37 °C in a humidified 5% CO2/95% air mixture and treated with the compounds at different concentrations for 72 h. At the end of drug exposure, cells were fixed with 50% trichloroacetic acid at 4 °C. After washing with distilled water, cells were stained with 0.1% sulforhodamine B, dissolved in 1% acetic acid (50 μL/well) for 30 min, and, subsequently, washed with 1% acetic acid to remove the unbound stain. The protein-bound stain was solubilized with 100 μL of 10 mM unbuffered Tris base, and the cell density was determined using a […] (wavelength 540 nm). Results are expressed as IC50 values (μM) ± SD.
(In SRB staining, fixed cells bind dye roughly in proportion to their protein.)

Data set [3] concerns MCF-7 (breast adenocarcinoma). The note with it: cited from earlier work; for IC50: literature value, same experimental conditions.
The subject of data set [4] is HT-29 (colorectal adenocarcinoma). Description: Sulforhodamine B in vitro growth inhibition assay, HT-29. The following applies: for Selectivity Index (SI) MCF-10/HT-29: IC50 in non-cancerogenic cell line / IC50 in cancer cell line; for IC50: Homo sapiens, HT-29, sulforhodamine B assay, 72 h of treatment, IC50 ± SD. The format is cell-based, human. How it is done: as §1, §2

Data set [5] deals with MCF-10 control cells (normal breast epithelium). The note with it: literature value, cited from earlier work.
The subject of data set [6] is MCF-7 (breast adenocarcinoma). The experiment in a line: Sulforhodamine B in vitro growth inhibition assay, MCF-7. The following applies: for Selectivity Index (SI) MCF-10/MCF-7: IC50 in non-cancerogenic cell line / IC50 in cancer cell line; for IC50: Homo sapiens, MCF7, sulforhodamine B assay, 72 h of treatment, IC50 ± SD. The data set is classed as cell-based, human. The protocol: as §1, §2

The test system of data set [7] is HT-29 (colorectal adenocarcinoma). Set-up: method as in PMID 25412045. The following applies: literature value, same experimental conditions; cited from earlier work.
Data set [8] addresses T1, Human recombinant Topoisomerase I (Homo sapiens, UniProt P11387).
T1 construct: purchased Sigma-Aldrich
T1 sequence (P11387 1-765): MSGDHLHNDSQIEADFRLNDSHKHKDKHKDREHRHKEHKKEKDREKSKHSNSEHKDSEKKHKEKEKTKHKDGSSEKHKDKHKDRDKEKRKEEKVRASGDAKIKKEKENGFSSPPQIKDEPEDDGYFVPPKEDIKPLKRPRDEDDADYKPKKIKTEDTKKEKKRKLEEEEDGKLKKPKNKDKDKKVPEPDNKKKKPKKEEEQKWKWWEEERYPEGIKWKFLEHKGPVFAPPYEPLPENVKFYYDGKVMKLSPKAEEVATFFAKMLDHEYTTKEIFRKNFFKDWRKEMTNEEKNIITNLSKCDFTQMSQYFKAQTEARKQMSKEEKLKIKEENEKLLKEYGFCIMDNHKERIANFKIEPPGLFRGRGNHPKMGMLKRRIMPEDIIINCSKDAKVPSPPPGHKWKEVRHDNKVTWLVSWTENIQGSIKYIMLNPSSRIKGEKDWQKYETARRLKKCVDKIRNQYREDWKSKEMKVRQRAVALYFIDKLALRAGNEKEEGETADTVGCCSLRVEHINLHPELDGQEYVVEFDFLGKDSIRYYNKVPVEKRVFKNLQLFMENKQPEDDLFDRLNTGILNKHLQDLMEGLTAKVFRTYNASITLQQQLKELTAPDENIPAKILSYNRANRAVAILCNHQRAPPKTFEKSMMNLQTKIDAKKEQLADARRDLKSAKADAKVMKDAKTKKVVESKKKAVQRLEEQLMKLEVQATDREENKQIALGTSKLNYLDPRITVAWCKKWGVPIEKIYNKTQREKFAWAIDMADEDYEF
The experiment in a line: Topoisomerase I activity, relaxation of supercoiled DNA (pEGFP-N1). The format is biochemical. The note with it: 50 μM, agarose gel, result in words. How it is done:
In this experiment, daunorubicin was used as control due to this compound being reported early as a TOPI inhibitor [31]. First, the optimal concentration of these compounds for the DNA relaxation assays was established.
Topoisomerase I activity was assayed by the relaxation of supercoiled DNA (pEGFP-N1) as the manufacturer’s instructions indicated. Human recombinant Topoisomerase I and buffer were from (Sigma-Aldrich). An amount of 2 μL of 10× topoisomerase I reaction buffer and 200 ng plasmid DNA and the indicated concentrations of compounds were incubated 30 min at 37 °C in Topo I buffer (500 mM Tris·HCl, pH 7.5, 1 M KCl, 10 mM dithiothreitol, 100 mM EDTA, 50 μg/mL acetylated bovine serum albumin (BSA)) in a total volume of 20 μL. The reaction was stopped by the addition of 5 μL of 5× loading dye (composition). Samples were electrophoresed on an 0.8% agarose gel without ethidium bromide for 2–3 h at 5 to 10 V/cm. The gel was stained with ethidium bromide and photographed with a UV transilluminator.

Data set [9] is described as follows: Sulforhodamine B in vitro growth inhibition assay, PC-3. The format is cell-based, human. The following applies: human; ratio of selectivity versus 5-FU; read-out: more selective than 5-FU in PC-3. How it is done: as §1, §2
A short description of data set [10]: Sulforhodamine B in vitro growth inhibition assay, MCF-7. The format is cell-based, human. The note with it: human; ratio of selectivity versus 5-FU; read-out: more selective than 5-FU in MCF-7. The protocol: as §1, §2
The test system of data set [11] is caspases 3 and 7 on MCF-7 cells. The experiment in a line: Caspase-Glo 3/7 assay. The following applies: 50 μM, 24 h. The format is cell-based, human. How it is done:
To determine the cell death type induced by the most promising aryl-drimane esters, we evaluated their capacity to induce apoptosis through the activation of caspases 3 and 7 on MCF-7 cells. For this purpose, 6a, 6e, 6f, 8c, 8f, and 8g were incubated for 24 h on MCF-7 cells at a concentration of 50 μM, close to the IC50 values for cytotoxicity in most compounds. […] In summary, these drimane derivatives induced apoptosis in the MCF-7 cell line, showing a potential antitumoral effect.
The activity of caspase 3/7 in treated MCF-7 cells was determined using a Caspase-Glo-3/7 Assay kit (Promega, UK—Cat. No G8090). The caspase-Glo 3/7 assay is a homogenous, luminescent assay that measures caspase-3 and -7 activities, both key-players in apoptosis. […] Luminescence was proportional to the amount of caspase present. MCF-7 cells (1 × 10^4 cells per well) were grown in a 96-well white plate and were allowed to adhere overnight. The cells were then treated for 24 h with the synthesized compounds (50 µM), with the inclusion of a blank as a control. After treatment, the Caspase-Glo® 3/7 was prepared according to the manufacturer’s guidelines. Briefly, 100 μL of Caspase-Glo 3/7 reagent was added to 100 μL of culture medium containing the cells previously treated in each well. The content was mixed gently by placing the plate on a shaker for 30 s, and the plate was incubated at room temperature in the dark for 1 h before luminescence was read on a luminometer (Berthold Sirius Single Tube Luminometer, Pforzheim, Germany). Fold change in caspase activity was obtained by first subtracting the luminescence value for the blank well from every other value, and then, expressing the average luminescence of each treatment as a fold change with respect to the average luminescence of the negative control.

The test system of data set [12] is MCF-10 control cells (normal breast epithelium). Description: Sulforhodamine B in vitro growth inhibition assay, MCF-10 control cells. The format is cell-based. The following applies: Homo sapiens, MCF10, 72 h of treatment, IC50 ± SD, non-tumoral cells. How it is done: as §1, §2

Here are results for 8 compounds from PMC10179937, “Cytotoxic Activity, Topoisomerase I Inhibition and In Silico Studies of New Sesquiterpene-aryl Ester Derivatives of (-) Drimenol” (Molecules, 2023).

As usually defined, the IC50 is the concentration needed to halve the response being measured. As a reminder, the melting point is the temperature of the solid-liquid transition.

Read-outs that look alike come from different tables or passages of the source.

On to `O=c1[nH]cc(F)c(=O)[nH]1` [5-FU, 5-fluorouracil], for which the IC50 in data set [1] is 16.4 ± 0.6 µM; in [3], 22.3 ± 0.2 µM; in [5] it was < 0.5 µM; in data set [7], 2.9 ± 0.7 µM. Moreover, the “Selectivity Index (SI) MCF-10/PC-3” value in data set [2] is recorded as 0.03. In data set [4], the “Selectivity Index (SI) MCF-10/HT-29” value is on record as 0.2. In data set [6], the “Selectivity Index (SI) MCF-10/MCF-7” value came to 0.02.

In the case of `CC1=C(C(=O)Oc2cc(C)cc(O)c2)[C@@]2(C)CCCC(C)(C)C2CC1` (stereo partly drawn) [6a, 3-Hydroxy-5-methylphenyl-(8aS)-2,5,5,8a-tetramethyl-3,4,4a,5,6,7,8,8a-octahydronaphthalene-1-carboxylate], the “inhibition of TOP1-induced DNA relaxation” value in [8] was “more prominent”. Besides, the selectivity ratio at 72 h in data set [9] was found to be 20; in [10], 100. For the same compound, the IC50 was found to be 85.5 ± 7.1 µM in [2], 56.9 ± 4 µM in [4], 33.7 ± 1.3 µM in data set [6] and 67.2 ± 6.3 µM in data set [12]. Moreover, the “Selectivity Index (SI) MCF-10/PC-3” value in data set [2] is reported as 0.8. Also, the “Selectivity Index (SI) MCF-10/HT-29” value in data set [4] came to 1.2. The “Selectivity Index (SI) MCF-10/MCF-7” value in data set [6] is on record as 2.0. Further, in [11], the “caspases-3/7 activity over the control” value is recorded as “two-fold”.

Compound `COC(=O)c1c(C)cc(OC(=O)C2=C(C)CCC3C(C)(C)CCC[C@]23C)cc1O` (stereo partly drawn) [6c, 3-Hydroxy-4-(methoxycarbonyl)-5-methylphenyl-(8aS)-2,5,5,8a-tetramethyl-3,4,4a,5,6,7,8,8a-octahydronaphthalene-1-carboxylate] returned a melting point of 124 °C. Further, the half-maximal inhibitory concentration (IC50) in data set [2] was > 100 µM. Also, the half-inhibitory concentration (IC50) in data set [4] is > 100 µM. Also, in data set [6], the IC50 is > 100 µM. In addition, in [12], the IC50 is > 100 µM.

The compound `COC(=O)c1c(C)cc(OC(=O)C2=C(C)CCC3C(C)(C)CCC[C@]23C)c(C)c1O` (stereo partly drawn) [6d, 3-Hydroxy-4-(methoxycarbonyl)-2,5-dimethylphenyl-(8aS)-2,5,5,8a-tetramethyl-3,4,4a,5,6,7,8,8a-octahydronaphthalene-1-carboxylate] gave a melting point of 128 °C. In addition, in [2], the IC50 was > 100 µM. The IC50 in data set [4] was > 100 µM. Moreover, the IC50 in data set [6] is > 100 µM. Also, the half-inhibitory concentration (IC50) in [12] was > 100 µM.

For `COc1cc(C(=O)OC[C@H]2C(C)=CCC3C(C)(C)CCC[C@@]32C)cc(OC)c1O` (stereo partly drawn) [8d, ((1S,8aS)-2,5,5,8a-tetramethyl-1,4,4a,5,6,7,8,8a-octahydronaphthalen-1-yl)methyl-4-hydroxy-3,5-dimethoxybenzoate], the melting point came out at 105 °C. In data set [2], half-maximal inhibition (IC50) was put at 33.3 ± 2.9 µM and the “Selectivity Index (SI) MCF-10/PC-3” value was 0.5. Also, in data set [4], the IC50 turned out to be 44.7 ± 6.7 µM and the “Selectivity Index (SI) MCF-10/HT-29” value was 0.4. Also, in data set [6], the IC50 worked out at 18.4 ± 0.5 µM and the “Selectivity Index (SI) MCF-10/MCF-7” value was determined as 0.9. Besides, inhibition in data set [12] was half-maximal at 16.5 ± 0.5 µM (IC50).

`COc1cc(OC)c(C(=O)OC[C@H]2C(C)=CCC3C(C)(C)CCC[C@@]32C)cc1OC` (stereo partly drawn) [8g, ((1S,8aS)-2,5,5,8a-tetramethyl-1,4,4a,5,6,7,8,8a-octahydronaphthalen-1-yl)methyl-2,4,5-trimethoxybenzoate]: in [2], the half-maximal inhibitory concentration (IC50) was 27.7 ± 2.6 µM and the “Selectivity Index (SI) MCF-10/PC-3” value is reported as 0.6. In data set [4], it took 31.3 ± 2 µM to reach half-maximal inhibition (IC50) and the “Selectivity Index (SI) MCF-10/HT-29” value is 0.5. In data set [6], inhibition was half-maximal at 28.7 ± 3.5 µM (IC50) and the “Selectivity Index (SI) MCF-10/MCF-7” value stood at 0.6. Besides, the “caspases-3/7 activity over the control” value in [11] stood at 3.5 fold. Moreover, 16.3 ± 0.6 µM corresponded to half-maximal inhibition in [12] (IC50).

As for `COc1cccc2c1C(=O)c1c(O)c3c(c(O)c1C2=O)C[C@@](O)(C(C)=O)C[C@@H]3O[C@H]1C[C@H](N)[C@H](O)[C@H](C)O1` [Daunorubicin, reference compound], in data set [8], the “inhibition of TOP1-induced DNA relaxation” value is “modified the TOP1-induced DNA relaxation in a minor way than compounds 6a and 8c”. Also, the IC50 in [1] was 0.41 ± 0.04 µM; in data set [3], 0.33 ± 0.02 µM; in data set [5] (same experimental conditions) it was 9.32 ± 1.01 µM; in data set [7], 15.1 ± 0.5 µM. Besides, the “Selectivity Index (SI) MCF-10/PC-3” value in data set [2] amounted to 23. The “Selectivity Index (SI) MCF-10/HT-29” value in [4] was found to be 0.6. For the same compound, the “Selectivity Index (SI) MCF-10/MCF-7” value in [6] was determined as 28.

For `CC1=CCC2C(C)(C)CCCC2(C)C1CO` (stereo not shown) [Drimenol], the IC50 in data set [1] and in data set [3] was > 100 µM throughout. The “cytotoxicity” value in data set [3] (two cell lines, ref Montenegro et al.) is “inactive”.
